Values of other authors in US5854247A, “Piperazine, piperidine and tetrahydropyridine derivatives useful as 5-HT1 recepter agonists” (Merck Sharp & Dohme Ltd., priority 1994, dated 1998).

Conditions: humans, therapeutic doses

With `CNS(=O)(=O)Cc1ccc2[nH]cc(CCN(C)C)c2c1` [sumatriptan] as the molecule, how does the adverse cardiovascular events read?
The adverse cardiovascular events was “certain adverse cardiovascular events”.
